Results from patent US9924715B2, “Zinc or copper (II) salt and use thereof as a biocide” (LABORATORIYA BIO ZET, LLC, priority 2014, dated 2018).
Several values for one entry are separate records, joined by “and”; a condition that tells them apart may be missing. Equal values may be shown once.

Experiments:
Format in all cases: cell-based
[1] = system: S. aureus No. 1257; experiment: Bactericidal activity: exposure in solution, neutralization, inoculation on solid medium; design: key to Bacterial growth after exposure (colony-forming units in 1 ml): NG—no growth; CG—confluent growth; conditions: for Bacterial growth after exposure (colony-forming units in 1 ml): S. aureus 1257; for Bactericidal effect: S. aureus No. 1257
[2] = system: clinical strain P. aeruginosa; experiment: as above; design: key to Bacterial growth after exposure (colony-forming units in 1 ml): NG—no growth; CG—confluent growth; conditions: for Bactericidal effect: 4.0%
[3] = system: E. coli No. 906; experiment: as above; design: key to Bacterial growth after exposure (colony-forming units in 1 ml): NG—no growth; CG—confluent growth; conditions: for Bacterial growth after exposure (colony-forming units in 1 ml): E. coli 906; for Bactericidal effect: E. coli No. 906
[4] = system: fungal spores; experiment: Fungicidal activity, GOST 30028.4-2006, resistance of treated materials
Description: The fungicidal activity of the proposed salts is determined according to GOST 30028.4-2006 by testing samples of various materials treated with these salts for resistance to fungal spores. Test results in terms of tolerance time (in days) are given in Table 4 wherein tolerance time for untreated materials are given for comparison.

[5] = Emulsion polyvinyl chloride, additive content 5 wt %, untreated control 6 days
[6] = Paper impregnated with latex SKS 65 GP, additive content 5 wt %, untreated control 4 days

| Compound | Bacterial growth after exposure (colony-forming units in 1 ml) ([1]; 2.0 wt %, exposure 5 min) | Bacterial growth after exposure (colony-forming units in 1 ml) ([1]; 2.0 wt %, exposure 15 min) | Bacterial growth after exposure (colony-forming units in 1 ml) ([1]; 2.0 wt %, exposure 30 min) | Bacterial growth after exposure (colony-forming units in 1 ml) ([1]; 4.0 wt %, exposure 5 min) | Bacterial growth after exposure (colony-forming units in 1 ml) ([1]; 4.0 wt %, exposure 15 min) | Bacterial growth after exposure (colony-forming units in 1 ml) ([1]; 4.0 wt %, exposure 30 min) | Bacterial growth after exposure (colony-forming units in 1 ml) ([1]; 4.0 wt %, exposure 60 min) | Bacterial growth after exposure (colony-forming units in 1 ml) ([3]; 2.0 wt %, exposure 5 min) | Bacterial growth after exposure (colony-forming units in 1 ml) ([3]; 2.0 wt %, exposure 15 min) [CFU] | Bacterial growth after exposure (colony-forming units in 1 ml) ([3]; 2.0 wt %, exposure 30 min) | Bacterial growth after exposure (colony-forming units in 1 ml) ([3]; 4.0 wt %, exposure 5 min) | Bacterial growth after exposure (colony-forming units in 1 ml) ([3]; 4.0 wt %, exposure 15 min) | Bacterial growth after exposure (colony-forming units in 1 ml) ([3]; 4.0 wt %, exposure 30 min) | Bacterial growth after exposure (colony-forming units in 1 ml) ([3]; 4.0 wt %, exposure 60 min) | Tolerance time [4, 5] [days] | Tolerance time [4, 6] [days] | also measured |
| --- | --- | --- | --- | --- | --- | --- | --- | --- | --- | --- | --- | --- | --- | --- | --- | --- | --- |
| Copper methacrylate-sorbate | >300 CFU | 85 CFU | 35 CFU and 43 CFU | NG | NG | NG | NG | >300 CFU | 78 | 45 CFU and 53 CFU | 1 CFU | NG | NG | NG |  |  | Bactericidal effect ([1]; 4.0%, exposure from 15 min): sustained bactericidal effect; Bactericidal effect ([2]; exposure from 15 min): sustained bactericidal effect; Bacterial growth after exposure (colony-forming units in 1 ml) ([3]; 2.0 wt %, exposure 60 min): 5 CFU and 4 CFU; Bactericidal effect ([3]; 4.0%, exposure from 15 min): sustained bactericidal effect |
| C=CC(=O)[O-].CCCCCCCCCC(=O)[O-].[Cu+2] [Copper acrylate-caprinate] |  |  |  |  |  |  |  |  |  |  |  |  |  |  | 20 | 19 | Tolerance time ([4]; Paper impregnated with petrolatum base, additive content 5 wt %, untreated control 15 days): 21 days |
| C/C=C/C(=O)[O-].C=CC(=O)[O-].[Zn+2] [Zinc acrylate-crotonate, zinc acrylate-crotonate] | CG | CG | CG | 7 CFU | NG | NG | NG | 75 CFU | 42 | >300 CFU | NG | NG | NG | NG |  |  | Bacterial growth after exposure (colony-forming units in 1 ml) ([1]; 2.0 wt %, exposure 60 min): >300 CFU; Bactericidal effect ([1]; 4.0%, exposure from 15 min): sustained bactericidal effect; Bacterial growth after exposure (colony-forming units in 1 ml) ([2]; 2.0 wt %, exposure 5 min): >300 CFU; Bacterial growth after exposure (colony-forming units in 1 ml) ([2]; 2.0 wt %, exposure 15 min): 10 CFU; Bacterial growth after exposure (colony-forming units in 1 ml) ([2]; 2.0 wt %, exposure 30 min): 4 CFU; Bactericidal effect ([2]; exposure from 15 min): sustained bactericidal effect; Bacterial growth after exposure (colony-forming units in 1 ml) ([2]; 4.0 wt %, exposure 5 min): 1 CFU; Bacterial growth after exposure (colony-forming units in 1 ml) ([2]; 4.0 wt %, exposure 15 min): NG; Bacterial growth after exposure (colony-forming units in 1 ml) ([2]; 4.0 wt %, exposure 30 min): NG; Bacterial growth after exposure (colony-forming units in 1 ml) ([2]; 4.0 wt %, exposure 60 min): NG; Bactericidal effect ([3]; 4.0%, exposure from 15 min): sustained bactericidal effect |
| Zinc methacrylate-myristate |  |  |  |  |  |  |  |  |  |  |  |  |  |  | 12 |  |  |
| Copper methacrylate-valerate |  |  |  |  |  |  |  |  |  |  |  |  |  |  | 16 |  |  |
| Zinc methacrylate-butyrate |  |  |  |  |  |  |  |  |  |  |  |  |  |  | 11 | 10 |  |
| C=CC(=O)[O-].CCCCCCCCCCC(=O)[O-].[Zn+2] [Zinc acrylate-undecylate] |  |  |  |  |  |  |  |  |  |  |  |  |  |  | 10 | 12 | Tolerance time ([4]; Paper impregnated with petrolatum base, additive content 4.7 wt %, untreated control 15 days): 20 days |
| C=CC(=O)[O-].CCCCCCCCCCCCCCCCCC(=O)[O-].[Cu+2] [Copper acrylate-stearate] | CG | >300 CFU | 25 CFU | NG | NG | NG | NG | CG | 100 | 10 CFU | NG | NG | NG | NG | 12 | 16 | Bacterial growth after exposure (colony-forming units in 1 ml) ([1]; 2.0 wt %, exposure 60 min): NG; Bactericidal effect ([1]; 2.0%, exposure 60 min): sustained bactericidal effect; Bactericidal effect ([1]; 4.0%, exposure from 5 min): sustained bactericidal effect; Bacterial growth after exposure (colony-forming units in 1 ml) ([2]; 2.0 wt %, exposure 5 min): CG; Bacterial growth after exposure (colony-forming units in 1 ml) ([2]; 2.0 wt %, exposure 15 min): CG; Bacterial growth after exposure (colony-forming units in 1 ml) ([2]; 2.0 wt %, exposure 30 min): CG; Bacterial growth after exposure (colony-forming units in 1 ml) ([2]; 2.0 wt %, exposure 60 min): CG; Bactericidal effect ([2]; exposure of more than 30 min): bactericidal effect; Bacterial growth after exposure (colony-forming units in 1 ml) ([2]; 4.0 wt %, exposure 5 min): CG; Bacterial growth after exposure (colony-forming units in 1 ml) ([2]; 4.0 wt %, exposure 15 min): >300 CFU; Bacterial growth after exposure (colony-forming units in 1 ml) ([2]; 4.0 wt %, exposure 60 min): NG; Bacterial growth after exposure (colony-forming units in 1 ml) ([3]; 2.0 wt %, exposure 60 min): NG; Bactericidal effect ([3]; 2.0%, exposure 60 min): sustained bactericidal effect; Bactericidal effect ([3]; 4.0%, exposure from 5 min): sustained bactericidal effect |
